Results from patent US20230101768A1, “METHOD TO TREAT MANGANESE TOXICITY AND MANGANESE-INDUCED PA[…] HUMANS” (priority 2021, published 2023).
Read-outs that look alike come from different tables or passages of the source. Starred links: 1 amine or outer side, 2 acyl side, 3 side chain; linkers in the order of their positions; H or OH if unused. Positions of bridges follow the written chain, without caps; N, C: chain ends. Non-standard residues stand in square brackets, D forms with d. Residues, ends and D or L forms follow the SMILES beside them. Chains are numbered I, II in the order given. *: point of attachment. Actinocin(9to1) = Cc1c2oc3c(C)ccc(C(=O)[*:1])c3nc-2c(C(=O)[*:2])c(N)c1=O; NMeV = CN[C@H](C(=O)O)C(C)C; Cbz = O=C(OCc1ccccc1)*; Sar = CNCC(=O)O

Experiments:
[1] = tested on: SLC30A10; format: cell-based, human; details: for SLC30A10 expression after prolyl hydroxylase inhibitor: indicated doses for 16 h or indicated times, no drug normalized to 1
Experimental: (§1) Cells were treated with 0 or 250 μM manganese for 4 h, and gene expression was analyzed by qRT-PCR. For each transcript, expression without manganese treatment was normalized to 1. N=4. Data are mean±SE.
(§2) Cell culture. HepG2 cells were grown in Eagle's modified essential medium (MEM; Corning) with 10% fetal bovine serum (Atlanta Biologicals), 100 IU/ml penicillin (Corning), and 100 μg/ml streptomycin (Corning). 293T cells were maintained in Dulbecco's modified essential medium/F12 (Thermo) supplemented with 10% fetal bovine serum, penicillin (100 IU/ml), and streptomycin (100 μg/ml). Human primary hepatocytes were purchased from XenoTech (catalog #HPCH10+) and cultured according to protocols provided by the supplier.
(§3) manganese and drug treatments in cell culture. Cells were treated with indicated levels of manganese as manganeseCl2.4H2O (Fisher). Vehicle for manganese treatment was water. Prolyl hydroxylase inhibitors roxadustat (Caymen), vadadustat, and molidustat (both APE-Bio); the HIFα inhibitor LW6 (Selleckchem); the proteasomal inhibitor MG132 (Sigma); and the transcription inhibitor actinomycin D (Sigma) were dissolved in DMSO. […] Vehicle treatment for all drugs was DMSO.
(§4) Quantitative RT-PCR assays. RNA extraction from HepG2 cells and mouse tissue, reverse transcription to cDNA, and qRT-PCR analyses were performed as described by us previously (47, 50). For analyses of mouse brain samples, a part of the midbrain, including the basal ganglia, was used. Transcript levels were quantified using the ΔΔCT method with 18S (in mice) or TBP (in HepG2 cells) as the internal control, also as described by us previously (47, 50).

[2] = tested on: VEGF; format: cell-based, human; details: HepG2 cells, 10 μM LW6 for 1 h then 250 μM manganese for 4 h
Experimental: as §1, §2, §3, §4

[3] = tested on: SLC30A10 promoter; format: cell-based, human
From the text: A luciferase reporter plasmid containing the proximal promoter of human SLC30A10 has been previously described and was a gift of Dr. Ruth Valentine (100). The promoter fragment corresponding to bases −679 to +211 relative to the start of transcription was sub-cloned into the Xho1 and SpeI sites of pRRLSIN.cPPTLuciferase.WPRE vector (Addgene, #69251), which is a luciferase vector for lentivirus infections. Deletion mutants were generated using the loop-out modification of the QuikChange protocol.
Lentiviral infections. Stable cells were generated by lentivirus infection essentially as described by us previously (49, 98). Briefly, lentivirus was produced in HEK293T cells by co-transfecting transfer plasmids described above with plasmids coding for a third generation packing system that is routinely used (pRSV-Rev, pRRE, and pCMV-VSVG) (49, 98). Viral supernatants were collected 40-48 h post-transfection. HepG2 cells for infection were plated in a 60 mm dish 24 h before infection so that cells reached a confluence of 30% on the day of infection. Collected viral supernatants were filtered through a 0.45-μm polyvinylidene difluoride filter, and cells were incubated with a 1:2 dilution of viral supernatant containing 5 μg/mL Polybrene (Santa Cruz). […]

[4] = tested on: SLC30A10; format: cell-based; details: primary human hepatocytes; for SLC30A10 expression after prolyl hydroxylase inhibitor: 20 μM roxadustat or 80 μM vadadustat for 16 h
Experimental: (§5) (A) and (B): qRT-PCR assays in cells treated with or without 10 μM LW6 for 1 h followed by 0 or 250 μM manganese for 4 h (A) or with or without 20 μM roxadustat or 80 μM vadadustat for 16 h (B). […] For (B), expression in the absence of drug treatment was normalized to 1. N=3. Mean±SE. *P<0.05 by t-test (A) or one-way ANOVA and Dunnett's post hoc test for the comparison between no drug and other conditions (B).
as §2, §3, §4

[5] = tested on: VEGF; format: cell-based; details: primary human hepatocytes; for VEGF expression after prolyl hydroxylase inhibitor: 20 μM roxadustat or 80 μM vadadustat for 16 h
Experimental: as §5, §2, §3, §4

[6] = tested on: HIF1α; format: cell-based, human; details: HepG2 cells, 20 μM roxadustat, 80 μM vadadustat or 20 μM molidustat for 16 h
Experimental: as §3
(§6) Immunoblots. HepG2 cells were cultured in 35 mm dishes, treated with or without manganese, MG132 and/or prolyl hydroxylase inhibitors, and scrapped using 200 μl of RIPA buffer (50 mM Tris-HCl, pH7.4; 150 mM NaCl; 1Mm EDTA; 1% Triton; 0.25% sodium deoxycholate; protease inhibitors cocktail (Thermo A32953)). Whole-cell lysates were prepared by adding loading buffer (50 mM Tris-HCl, pH 7.4; 2% sodium dodecyl sulfate; 10% glycerol, 0.1 M dithiothreitol; 0.01% (weight/volume) bromophenol blue) and boiling the samples for 5 min. Equal volumes of samples were loaded per lane. Further processing was as described by us previously (47). Images were quantified using ImageQuant TL software (GE).
(§7) Antibodies and chemicals. The inventors used the following commercial primary antibodies in this study: rabbit polyclonal anti-HIF1α (Abcam, Ab2185), rabbit polyclonal anti-HIF2α (Novus, NB100-122), rabbit monoclonal anti-HIF1α proline 564 (Cell signaling, 3434S), and mouse monoclonal anti-tubulin (Sigma, T5168). […] Sources of chemicals not provided elsewhere were Thermo Fisher Scientific or Sigma-Aldrich.

[7] = tested on: HIF2α; format: cell-based, human; details: HepG2 cells, 20 μM roxadustat, 80 μM vadadustat or 20 μM molidustat for 16 h
Experimental: as §3, §6, §7

[8] = tested on: HepG2 cells; format: cell-based, human
Experimental: as §2, §3
(§8) Inductively coupled plasma mass spectrometry. Metal measurements using ICP-MS were performed exactly as described by us previously (47, 50, 51, 99).

[9] = tested on: HepG2 cells; test: MTT cell viability assay, manganese-induced cell death; format: cell-based, human; details: 20 μM roxadustat, 80 μM vadadustat or 20 μM molidustat for 16 h then manganese for 24 h
Experimental: manganese and drug treatments in cell culture. […] Vehicle for manganese treatment was water. […] Vehicle treatment for all drugs was DMSO.
Cell viability assays. These were performed using the 3-(4,5-dimethylthiazol-2-yl)-2,5-diphenyl tetrazolium bromide (MTT) reagent (Sigma) as described by us previously (47, 50).

[10] = tested on: SLC30A10; format: in vivo, mice; details: C57BL/6J mice, roxadustat 10 mg/kg daily i.p. for 4 weeks
Experimental: A well-characterized drinking water-based manganese exposure regimen was used to model human environmental manganese exposure by providing mice with ˜50 mg manganeseCl2.4H2O/kg body weight daily (˜15 mg absolute manganese/kg per day) from birth until 8 weeks of age. This, and related similar, dosing regimens: 1) approximate the increase in manganese exposure in humans consuming well water contaminated with 1.5 mg manganese/L, which is the median well water concentration associated with neurological deficits in children; 2) increase brain manganese levels by ˜2-3 fold, similar to human patients; 3) produce measurable neurobehavioral deficits without overt toxicity; and 4) model exposure to manganese in developmentally-sensitive early-life and adolescent periods (11). Pre-weaning manganese was delivered by pipette directly into the mouth, and post-weaning manganese was delivered in drinking water using procedures described in detail in ref. (11). In brief, pre-weaning dosing was adjusted to each animal's body weight. For this, a stock solution of 69.2 mg absolute manganese/ml prepared in milliQ water was diluted in milliQ water containing 2.5% (wt/vol) of the natural sweetener Stevia (to facilitate intake by pups), and the required manganese amount (0.2 μl manganese stock/g body weight) was delivered in a dose of ˜5-10 μl/animal. For post-weaning exposure, a 27.7 mg absolute manganese/ml stock solution was prepared in water and diluted to 0.069 mg absolute manganese/ml in drinking water, which provided mice with ˜15 mg absolute manganese/kg per day based on a daily water intake of ˜2-5 ml/mouse depending on age.
(§9) To assay for the protective effect of roxadustat, animals were exposed to roxadustat or vehicle with or without manganese in drinking water from ˜4 weeks of age. Treatment lasted for 4 weeks from initiation. Roxadustat (Selleckchem) was prepared as a 50 mg/ml stock solution in DMSO, then diluted to 1 mg/ml in sterile phosphate buffered saline (PBS), and delivered by daily i.p. injection at 10 mg/kg. Vehicle was 2% DMSO in PBS. For this experiment, drinking water manganese levels were adjusted to 0.138 mg absolute manganese/ml so that animals received ˜30 mg absolute manganese/kg daily. A higher level of manganese was used because exposure was initiated after weaning, which was necessary because daily i.p. injections for roxadustat delivery were not possible in the pre-weaning period.
(§10) Animals were euthanized using carbon dioxide and tissue dissected for qRT-PCR or ICPMS analyses as described by us previously (50).
as §4

[11] = tested on: C57BL/6J mice
Experimental: as §9
Open-field assays for neurobehavior assessment. Open-field analyses were performed as described in a recent publication (51).

[12] = tested on: C57BL/6J mice; details: roxadustat 10 mg/kg daily i.p. with or without manganese in drinking water, 4 weeks, two-way ANOVA
Experimental: as §9, §10, §8

[13] = tested on: prolyl hydroxylated HIF1α; format: cell-based, human
Experimental: as §3, §6, §7

[14] = 10 μM LW6 for 1 h then 250 μM manganese for 4 h

## COC(=O)c1ccc(O)c(NC(=O)COc2ccc(C34CC5CC(CC(C5)C3)C4)cc2)c1 [LW6, reference compound]
[1]; HepG2 cells, 10 μM LW6 for 1 h then 250 μM manganese for 4 h
  Effect of LW6 on manganese-induced upregulation of SLC30A10: robustly blocked
[2]
  Effect of LW6 on manganese-induced upregulation of VEGF: robustly blocked
[3]
  Effect of LW6 on manganese-induced increase in activity of SLC30A10 promoter luciferase reporter: abolished
[4]; [14]
  Effect of LW6 on manganese-induced increase of SLC30A10 expression: inhibited
[5]; [14]
  Effect of LW6 on manganese-induced increase of VEGF expression: inhibited

## O=C(O)CNC(=O)c1ncc(-c2cccc(Cl)c2)cc1O [vadadustat, 2-[[5-(3-chlorophenyl)-3-hydroxypyridine-2-carbonyl]amino]acetic acid]
[1]; HepG2 cells
  SLC30A10 expression after prolyl hydroxylase inhibitor: enhanced
[6]
  HIF1α protein levels after prolyl hydroxylase inhibitor: increased
[7]
  HIF2α protein levels after prolyl hydroxylase inhibitor: increased
[8]
  Intracellular Fe, Cu, and Zn levels: no effect
  Intracellular manganese in cells not exposed to manganese: did not impact
  Intracellular manganese levels under elevated manganese exposure, versus controls: significantly lower
[9]
  Protection against manganese-induced cell death: protected
[4]
  SLC30A10 expression after prolyl hydroxylase inhibitor: increased
[5]
  VEGF expression after prolyl hydroxylase inhibitor: increased

## Cc1nc(C(=O)NCC(=O)O)c(O)c2ccc(Oc3ccccc3)cc12 [roxadustat, 2-[(4-hydroxy-1-methyl-7-phenoxyisoquinoline-3-carbonyl)amino]acetic acid]
[1]; HepG2 cells
  SLC30A10 expression after prolyl hydroxylase inhibitor: enhanced
[6]
  HIF1α protein levels after prolyl hydroxylase inhibitor: increased
[7]
  HIF2α protein levels after prolyl hydroxylase inhibitor: increased
[8]
  Intracellular Fe, Cu, and Zn levels: no effect
  Intracellular manganese in cells not exposed to manganese: did not impact
  Intracellular manganese levels under elevated manganese exposure, versus controls: significantly lower
[9]
  Protection against manganese-induced cell death: protected
[4]
  SLC30A10 expression after prolyl hydroxylase inhibitor: increased
[5]
  VEGF expression after prolyl hydroxylase inhibitor: increased
[10]
  Brain SLC30A10 levels: did not impact
  Intestinal SLC30A10 levels: increased
[11]; C57BL/6J mice, roxadustat 10 mg/kg daily i.p. for 4 weeks, no manganese
  Open-field activity, roxadustat treatment by itself: did not impact
[11]; mouse, in vivo
  Hypo-locomotor phenotype (reduced vertical movement) in mice treated with manganese and roxadustat: not detected
[12]
  Brain manganese levels, main effect of roxadustat: reducing

## CC(C)C[C@@H](C=O)NC(=O)[C@H](CC(C)C)NC(=O)[C@H](CC(C)C)NC(=O)OCc1ccccc1 [MG132, reference compound] (Cbz-Leu-Leu-Leu-aldehyde)
[13]
  Prolyl hydroxylated HIF1α after proteasome inhibition: accumulation

## Cc1c2oc3c(C)ccc(C(=O)N[C@@H]4C(=O)N[C@H](C(C)C)C(=O)N5CCC[C@H]5C(=O)N(C)CC(=O)N(C)[C@@H](C(C)C)C(=O)O[C@@H]4C)c3nc-2c(C(=O)N[C@@H]2C(=O)N[C@H](C(C)C)C(=O)N3CCC[C@H]3C(=O)N(C)CC(=O)N(C)[C@@H](C(C)C)C(=O)O[C@@H]2C)c(N)c1=O [actinomycin D, reference compound] (I: T[dV]P[Sar][NMeV] / II: T[dV]P[Sar][NMeV]; ester I:1-I:C, II:1-II:C; linker I:N-II:N via Actinocin(9to1))
[1]
  Effect of actinomycin D on increase in SLC30A10 mRNA after manganese exposure: blocked
